Like-named read-outs stand apart in the source and are kept apart here.

In the case of `Cc1cccc([C@H](C)c2cnc[nH]2)c1C` [dexmedetomidine, Dexmedetomidine], the solubility of dexmedetomidine result by setting is: (in Duro-Tak 87-2979) “less than 2%”; (in Duro-Tak 387/87-2353 (acid functionalized acrylate polymer)) 10-15%; (in hydroxyl functionalized acrylate polymer) “less than 1%”; (in levulinic acid) ~60%; (in oleic acid) ~40%.
